The target in one data set is Recombinant EGFR kinase (Homo sapiens, UniProt P00533). The experiment in a line: Recombinant EGFR kinase activity. The following applies: read-out: Recombinant EGFR Kinase Activity (%inh at 150 nM). In kind it is biochemical.
The next data set relates to phospho-NF-κB p65 (S468). The experiment in a line: Western blot phospho-NF-κB p65 (S468) in dTHP-1 cells. In kind it is cell-based, human. The note with it: 7.5 µM; LPS-stimulated dTHP-1 cells. The method, then:
(§1) Cells were lysed in the commercial RIPA Buffer (Thermo Fisher Scientific, Waltham, MA, USA) and then centrifuged at 14,000× g for 20 min. […] Antibodies used in this study were phospho-NF-κB p65 (S468; catalog no. 3039), phospho-NF-κB p65 (S536; catalog no. 3033), phospho-IKKα/β (catalog no. 2697), and IκB (catalog no. 9242) from Cell Signaling Technology (Beverly, MA, USA); GAPDH from ABclonal (catalog no. A10868; Woburn, MA, USA). The labeled signals were determined using an enhanced chemiluminescence system (UVP, Upland, CA, USA). The experiments were performed at least two times in triplicate, providing basically the same results.
The dTHP−1 cells were incubated with DMSO (0.1%), 19 (7.5 µM), or CAPE (10 µM) in medium for 3 h and then stimulated with or without LPS (0.1 µg/mL) for another 30 min. (A) Nuclear translocation of NF-κB p65 (green) was determined by immunofluorescent microscopy. Hoechst (blue) was used for nuclei staining. (B) The nuclear NF-κB p65-positive cells were quantified. (C) The levels of phospho-NF-κB p65 (S468), IκB, and GAPDH were determined by Western blot. (D) The normalized phospho-NF-κB p65 (S468) and IκB levels were quantified. All data are expressed as mean ± SEM (n = 3); ** p < 0.01 and *** p < 0.001 compared with the DMSO + LPS group.
Background: A western blot detects proteins with antibodies after separation by electrophoresis.

The next data set has as its system IL-6 production. In words: IL-6 production in LPS-activated dTHP-1 cells (ELISA). The data set is classed as cell-based, human. The note with it: Homo sapiens. The method, then: (§2) The HEK-293 (ATCC Cat# CRL-1573, RRID:CVCL_0045) and human monocytic THP−1 cells (ATCC Cat# TIB-202, RRID:CVCL_0006) were, respectively, cultured in DMEM and RPMI 1640 media supplemented with 10% fetal bovine serum, 2 mM L-glutamine, and 1× Antibiotic-Antimycotic at 37 °C in a humidified incubator with 5% CO2. THP−1 cells were differentiated by 100 nM phorbol-12-myristate-13-acetate (PMA) for 4 h and then rested for 44 h as dTHP−1 cells.
(§3) The dTHP−1 cells were treated with indicated compounds for 3 h and then activated with or without 100 ng/mL lipopolysaccharide (LPS; E. coli 0111:B4) for another 24 h. The levels of human IL-6 and TNFα in supernatants were measured by DuoSet® ELISA Development System (R&D systems, Minneapolis, MN, USA) according to the manufacturer’s protocol.
In general terms: An ELISA detects its analyte on a solid surface through an enzyme-linked reagent.

A short description of data set [1]: Cell viability (WST-1), A549. The data set is classed as cell-based. The following applies: human, A549 cells, mean ± SEM, n = 3. How it is done: (§4) Cells were incubated with the WST-1 reagent (Thermo Fisher Scientific, Waltham, MA, USA) at 37 °C for 2 h. The cell viability was determined by spectrophotometer at 450 nm.
On the technique in general: Tetrazolium assays rely on reduction of a dye to a coloured formazan, in cell work by metabolically active cells.

The test system of another data set is NF-κB. In words: NF-κB luciferase reporter assay. The note with it: Homo sapiens, NF-κB-luciferase-transfected HEK293 cells, TNFα 50 ng/mL. In kind it is cell-based. How it is done:
NF-κB Luciferase Reporter Vector was purchased from Signosis (Santa Clara, CA, USA) and transfected into HEK-293 cells using FuGENE HD (Promega, Fitchburg, MA, USA) following the manufacturer’s protocol. The transfected cells were incubated in serum-free DMEM for 16 h and then treated with DMSO or indicated compounds. After 3 h, cells were treated with or without 50 ng/mL of Recombinant Human TNFα Protein (R&D systems, Minneapolis, MN, USA) for another 3 h. The protein lysates were analyzed using Steady-Glo® Luciferase Assay System (Promega, Fitchburg, MA, USA) and TECAN Infinite 200 pro (Männedorf, Switzerland).

The next data set concerns phospho-NF-κB p65 (S536). In words: Western blot phospho-NF-κB p65 (S536) in dTHP-1 cells. The following applies: 7.5 µM; LPS-stimulated dTHP-1 cells. The data set is classed as cell-based, human. How it is done: as §1
(§5) The dTHP−1 cells were incubated with DMSO (0.1%), 19 (7.5 µM), or CAPE (10 µM) in medium for 3 h and then stimulated with or without LPS (0.1 µg/mL) for another 30 min. (A) The levels of phospho-NF-κB p65 (S536), phospho-IKKα/β, IκB, and GAPDH were determined by Western blot. The normalized (B) phospho-NF-κB p65 (S536), (C) phospho-IKKα/β, and (D) IκB levels were quantified. All data are expressed as mean ± SEM (n = 3); * p < 0.05 compared with the DMSO + LPS group.

In another data set the test system is phospho-IKKα/β. The experiment in a line: Western blot phospho-IKKα/β in dTHP-1 cells. The data set is classed as cell-based, human. The following applies: 7.5 µM; LPS-stimulated dTHP-1 cells. The method, then: as §1, §5
Data set [2] deals with protein kinases known to regulate the NF-κB pathway. The experiment in a line: Kinase screening panel as a whole. In kind it is biochemical. The note with it: Table S1. The source says: While the EGFR kinase inhibitory activity was largely abolished here, it could not be excluded that our modifications may have generated affinity to another kinase. The most important kinases to be checked were those reported to phosphorylate p65-Ser468 in different cell types, comprising GSK3β, IKKβ, and IKKɛ [45, 46, 47]. In addition, all the kinases described in the literature to control the canonical and non-canonical pathway of NF-κB activation were also included in the screening panel. […] Instead, the inhibitory effect of 19 on the Ser468 phosphorylation might be indirect, e.g., through interference with proteins complexes regulating the Ser468 kinase activity.
Tabl e S1. Selectivity profiling of compound 19 ag ainst the protein kinases known to regulate the NF-kB pathway ki nase % Inhibiti on at 2 µMa […]
aScreenings were perf or med as a servi ce at Thermo Fisher Scientific at an ATP concentrat ion of 100 μM. n.i., no inhi biti on. Data represent mean values of duplicat es that differed by less t han 7%.

Data set [3] in a line: Cell viability (WST-1), HEK293. The data set is classed as cell-based. The note with it: human, HEK293 cells, mean ± SEM, n = 3. How it is done:
as §4

A further data set deals with TNFα production. The experiment in a line: TNFα production in LPS-activated dTHP-1 cells (ELISA). The data set is classed as cell-based. The following applies: Homo sapiens. How it is done: as §2, §3
Where [4] appears, read: LPS-activated dTHP-1 cells, 24 h.

Entries after “also recorded” stand apart in the source; their conditions may differ.

Chain of Recombinant EGFR kinase (P00533 25-1210): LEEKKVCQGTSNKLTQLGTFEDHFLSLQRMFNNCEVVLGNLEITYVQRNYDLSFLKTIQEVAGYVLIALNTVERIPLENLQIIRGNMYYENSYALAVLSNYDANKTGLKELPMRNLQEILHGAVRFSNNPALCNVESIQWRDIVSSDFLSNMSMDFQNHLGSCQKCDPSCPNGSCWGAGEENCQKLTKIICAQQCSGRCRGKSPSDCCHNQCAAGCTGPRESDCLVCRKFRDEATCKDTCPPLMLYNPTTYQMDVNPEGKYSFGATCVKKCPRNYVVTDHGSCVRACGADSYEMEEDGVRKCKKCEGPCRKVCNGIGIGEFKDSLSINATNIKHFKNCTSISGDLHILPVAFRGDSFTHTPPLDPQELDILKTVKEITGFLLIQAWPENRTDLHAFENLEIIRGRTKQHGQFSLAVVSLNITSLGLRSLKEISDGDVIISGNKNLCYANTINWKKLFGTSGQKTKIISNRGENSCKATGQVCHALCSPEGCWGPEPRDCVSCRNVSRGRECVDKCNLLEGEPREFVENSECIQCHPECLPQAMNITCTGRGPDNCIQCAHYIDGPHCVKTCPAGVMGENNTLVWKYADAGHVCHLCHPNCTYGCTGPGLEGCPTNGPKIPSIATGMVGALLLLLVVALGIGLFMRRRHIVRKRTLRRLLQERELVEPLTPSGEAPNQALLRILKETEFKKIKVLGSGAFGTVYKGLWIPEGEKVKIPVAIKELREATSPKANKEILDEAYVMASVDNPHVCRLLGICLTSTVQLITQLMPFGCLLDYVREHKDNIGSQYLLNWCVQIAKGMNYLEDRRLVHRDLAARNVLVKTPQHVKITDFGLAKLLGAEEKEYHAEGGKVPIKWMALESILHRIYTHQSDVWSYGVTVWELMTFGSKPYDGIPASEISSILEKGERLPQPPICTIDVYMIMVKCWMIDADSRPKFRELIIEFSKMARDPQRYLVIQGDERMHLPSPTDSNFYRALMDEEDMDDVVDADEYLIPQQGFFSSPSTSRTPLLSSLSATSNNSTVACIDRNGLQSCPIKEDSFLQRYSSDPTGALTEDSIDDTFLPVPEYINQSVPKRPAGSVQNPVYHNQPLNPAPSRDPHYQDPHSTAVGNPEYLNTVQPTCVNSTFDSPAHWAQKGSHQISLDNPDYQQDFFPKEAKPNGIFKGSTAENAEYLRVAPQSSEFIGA

`S=C(Nc1ccc2ncnc(Nc3cccc(Cl)c3)c2c1)NC1CCCC1` [Compound 19, 1-(4-((3-Chlorophenyl)amino)quinazolin-6-yl)-3-cyclopentylthiourea]: the melting point (usually the temperature, or range, at which the solid turns liquid) lay within 229.1 to 231.6 °C. Besides, at Recombinant EGFR kinase, the inhibition at 0.15 µM came to 23%. Further, the “Phosphorylation of p65-Ser468” value with phospho-NF-κB p65 (S468) is “significantly diminished phosphorylation of p65-Ser468”. The inhibition at 7.5 µM in the data set on IL-6 production (7.5 μM, LPS 100 ng/mL for 24 h, dTHP-1 cells, read-out: IL-6 Production Inh % (7.5 μM)) is 92.7 ± 5.5%. Also, in the data set with IL-6 production (15 μM, LPS 100 ng/mL for 24 h, dTHP-1 cells, read-out: IL-6 Production Inh % (15 μM)), the inhibition at 15 µM was found to be 98.3 ± 0.28%. Besides, in the data set with IL-6 production (setting [4]), the concentration for half-maximal inhibition (IC50) – broadly, the midpoint of a concentration-inhibition curve – is 840 ± 120 nM. Besides, the viability (commonly a read-out of living cells in per cent, often relative to untreated cells) at 10 µM in [1] came to 99.9 ± 1.6%. Further, the inhibition at 10 µM in the data set on NF-κB (10 μM, mean ± SEM, n = 3, read-out: NF-κB Luciferase Activity Inh %) worked out at 92.5 ± 0.8%. In addition, in the data set with NF-κB, the IC50 was 2300 nM. Besides, in the data set on phospho-NF-κB p65 (S536), the “Phosphorylation of p65 at Ser536” value is “not affected”. Further, the “Activation of IKKα/β (phospho-IKKα/β)” value with phospho-IKKα/β is given as “had no effects on IKKα/β-IκB signaling; also recorded: neither blocked the activation of IKKα/β”. In addition, the “Inhibition of kinases involved in NF-κB activation (panel)” value in data set [2] was “did not appreciably inhibit any of these kinases”. Moreover, in [3], the viability at 10 µM was determined as 118 ± 11.4%. In addition, the inhibition at 7.5 µM with TNFα production (7.5 μM, LPS 100 ng/mL for 24 h, dTHP-1 cells, read-out: TNFα Production Inh % (7.5 μM)) amounted to 82.5 ± 5.6%. In the data set on TNFα production (15 μM, LPS 100 ng/mL for 24 h, dTHP-1 cells, read-out: TNFα Production Inh % (15 μM)), the inhibition at 15 µM came to 91.5 ± 2.5%. This molecule yielded a half-maximal inhibitory concentration (IC50) in the data set on TNFα production (setting [4]) of 4000 ± 200 nM.
